Source: patent publication US8716473B2, “Substituted benzotriazines and quinoxalines as inhibitors of P7OS6 kinase” (Sentinel Oncology Limited, priority 2009, dated 2014)
Counter-ions that a name gives are not always drawn.

Tests used:
MCF-7 cells = test: MCF-7 proliferation assay (Alamar blue); type: cell-based; conditions: Homo sapiens, MCF7, 72 h incubation, read-out: IC50 for inhibition of cell growth
Experimental: The following assay was used to determine the ability of test compounds to inhibit cell growth.
The following protocol was used: • 1) MCF-7 cells were seeded in 96-well plates at 5000 cells per well and allowed to adhere overnight prior to addition of compound or vehicle control. • 2) Test compounds were prepared from 10 mM DMSO stocks to give a final concentration range of 100 μM, 30 μM, 10 μM, 3 μM, 1 μM, 0.3 μM, 0.1 μM, 0.03 μM, 0.01 μM and vehicle control. The DMSO content was constant at 1%. • 3) Test compounds were incubated with the cells for 72 h at 37° C. 5% CO2 in a humidified atmosphere. • 4) Alamar blue 10% (v/v) was then added and incubated for a further 6 h, and fluorescent product detected using the BMG FLUOstar plate reader. • 5) Data were analysed using a 4-parameter logistic equation in Graph Pad Prism.

[1] = test system: phosphorylation of S6 Ser235/236 in MCF-7 cells; test: Inhibition of P70S6K activity in whole cells: phospho-S6 ELISA in MCF-7 cells; type: cell-based; conditions: Homo sapiens, MCF7, 2 h incubation, 1% FBS
Experimental: The following assay provides IC50 values for inhibition of P70S6K activity in a whole cell assay by determining effects on the phosphorylation of S6^Ser235/236 in MCF-7 cells by ELISA.
The following protocol was used: • 1) MCF-7 cells were seeded in 96-well plates at a density of 7×10^3 cells per well and allowed to adhere for 6 h in media containing 10% FBS. • 2) The full serum media was replaced and cells incubated overnight in media containing 1% FBS, prior to addition of test compounds. • 3) Test compounds were prepared from 10 mM or 5 mM (BEZ-235) DMSO stocks to give final concentration ranges as indicated on graphs. DMSO was constant at a final concentration of 1%. • 4) Test compounds were incubated with cells in duplicate for 2 h at 37° C./5% CO2 in a humidified atmosphere. • 5) The media was removed and cells were lysed by freeze-thawing in cell lysis buffer. • 6) Detection of phosphorylated S6Ser235/236 was then carried out using a PathScan ELISA kit (Cell Signaling Technology #7205). • 7) Lysates were diluted 1:1 with sample diluent before being applied to wells coated with an antibody against phosphorylated-S6 protein. • 8) The ELISA was then performed as stated in the manufacturers' instructions. • 9) The raw data were normalised to control values and analysed using a 4-parameter logistic equation in GraphPad Prism.

p70S6K (h) = p70S6K (h) (Homo sapiens, UniProt P23443); test: Determination of p70S6 inhibitory activity (radiometric 33P-ATP filter assay); type: biochemical; conditions: 40 min at room temperature, read-out: IC50 against P70S6 kinase
p70S6K (h), sequence (P23443 whole entry): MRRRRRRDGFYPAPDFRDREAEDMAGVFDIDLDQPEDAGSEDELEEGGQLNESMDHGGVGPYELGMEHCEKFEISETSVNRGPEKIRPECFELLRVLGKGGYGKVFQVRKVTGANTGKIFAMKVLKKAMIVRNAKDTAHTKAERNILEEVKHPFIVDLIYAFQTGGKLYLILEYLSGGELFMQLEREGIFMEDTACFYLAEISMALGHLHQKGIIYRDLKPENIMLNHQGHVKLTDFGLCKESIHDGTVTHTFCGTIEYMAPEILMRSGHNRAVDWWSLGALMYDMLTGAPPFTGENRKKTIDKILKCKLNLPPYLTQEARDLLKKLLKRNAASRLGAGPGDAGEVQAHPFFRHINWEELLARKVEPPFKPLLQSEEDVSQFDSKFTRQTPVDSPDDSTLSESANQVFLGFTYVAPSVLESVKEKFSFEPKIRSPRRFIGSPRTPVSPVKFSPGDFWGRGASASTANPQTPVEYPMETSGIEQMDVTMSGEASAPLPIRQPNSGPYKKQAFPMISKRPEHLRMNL
Experimental: The ability of compounds of the invention to inhibit P70S6 kinase was determined using the protocol below.
• 20 mM MOPS, 1 mM EDTA, 0.01% Brij-35, 5% Glycerol, 0.1% b-mercaptoethanol, 1 mg/mL BSA Method: • p70S6K (h)
In a final reaction volume of 25 μL, p70S6K (h) (5-10 mU) is incubated with 8 mM MOPS pH 7.0, 0.2 mM EDTA, 100 μM KKRNRTLTV, 10 mM Mg acetate and [γ-33P-ATP] (specific activity approx. 500 cpm/pmol, concentration as required). The reaction is initiated by the addition of the MgATP mix. After incubation for 40 minutes at room temperature, the reaction is stopped by the addition of 5 μL of a 3% phosphoric acid solution. 10 μL of the reaction mixture is then spotted onto a P30 filtermat and washed three times for 5 minutes in 75 mM phosphoric acid and once in methanol prior to drying and scintillation counting.

Structure (SMILES) | IC50 (MCF-7 cells) [µM] | IC50 [1] [µM] | IC50 (p70S6K (h)) [µM]
c1cc(CNc2cnc3cc(-c4cn[nH]c4)ccc3n2)cc(N2CCOCC2)c1 [Example 7, (3-Morpholin-4-yl-benzyl)-[6-(1H-pyrazol-4-yl)-quinoxalin-2-yl]-amine hydrochloride] | < 20 | < 5 | < 5
CN(Cc1cccc(F)c1)c1cnc2cc(-c3cn[nH]c3)ccc2n1 [Example 28, (3-Fluoro-benzyl)-methyl-[6-(1H-pyrazol-4-yl)-quinoxalin-2-yl]-amine] | < 10 | < 1 | < 0.1
CCN(Cc1ccccc1)c1cnc2cc(-c3cn[nH]c3)ccc2n1 [Example 26, Benzyl-ethyl-[6-(1H-pyrazol-4-yl)-quinoxalin-2-yl]-amine] | < 50 | – | < 0.1
COc1cccc([C@@H](C)Nc2cnc3cc(-c4cn[nH]c4)ccc3n2)c1 [Example 50, [(R)-1-(3-Methoxy-phenyl)-ethyl]-[6-(1H-pyrazol-4-yl)-quinoxalin-2-yl]-amine hydrochloride] | < 10 | < 1 | < 0.1
COc1ccc(CNc2cnc3cc(-c4cn[nH]c4)ccc3n2)cc1 [Example 17, (4-Methoxy-benzyl)-[6-(1H-pyrazol-4-yl)-quinoxalin-2-yl]-amine] | < 10 | < 5 | < 1
C[C@@H](Nc1cnc2cc(-c3cn[nH]c3)ccc2n1)c1ccccc1 [Example 33, ((R)-1-Phenyl-ethyl)-[6-(1H-pyrazol-4-yl)-quinoxalin-2-yl]-amine] | < 20 | < 1 | < 0.1
CN1CCN(c2cccc(CNc3cnc4cc(-c5cn[nH]c5)ccc4n3)c2)CC1 [Example 6, [3-(4-Methyl-piperazin-1-yl)-benzyl]-[6-(1H-pyrazol-4-yl)-quinoxalin-2-yl]-amine hydrochloride] | < 20 | < 5 | < 1
CN(C)CCOc1cccc(CNc2cnc3cc(-c4cn[nH]c4)ccc3n2)c1 [Example 31, [3-(2-Dimethylamino-ethoxy)-benzyl]-[6-(1H-pyrazol-4-yl)-quinoxalin-2-yl]-amine hydrochloride] | < 20 | – | < 5

Second part, the compound after the results:

IC50 (MCF-7 cells) [µM] | IC50 [1] [µM] | IC50 (p70S6K (h)) [µM] | Structure (SMILES)
< 20 | < 5 | < 0.1 | Clc1ccc(CNc2cnc3cc(-c4cn[nH]c4)ccc3n2)cc1 [Example 8, (4-Chloro-benzyl)-[6-(1H-pyrazol-4-yl)-quinoxalin-2-yl]-amine]
< 10 | < 1 | < 0.1 | Cc1cccc(CNc2cnc3cc(-c4cn[nH]c4)ccc3n2)c1 [Example 41, (3-Methyl-benzyl)-[6-(1H-pyrazol-4-yl)-quinoxalin-2-yl]-amine]
< 10 | < 5 | < 0.1 | c1ccc(CNc2cnc3cc(-c4cn[nH]c4)ccc3n2)cc1 [Example 1, Benzyl-[6-(1H-pyrazol-4-yl)-quinoxalin-2-yl]-amine]
< 20 | – | < 1 | Fc1ccccc1CNc1cnc2cc(-c3cn[nH]c3)ccc2n1 [Example 13, (2-Fluoro-benzyl)-[6-(1H-pyrazol-4-yl)-quinoxalin-2-yl]-amine hydrochloride]
< 10 | < 5 | < 0.1 | Fc1cccc(CNc2cnc3cc(-c4cn[nH]c4)ccc3n2)c1 [Example 12, (3-Fluoro-benzyl)-[6-(1H-pyrazol-4-yl)-quinoxalin-2-yl]-amine hydrochloride]
< 20 | < 5 | < 0.1 | c1ccc(CCNc2cnc3cc(-c4cn[nH]c4)ccc3n2)cc1 [Example 25, Phenethyl-[6-(1H-pyrazol-4-yl)-quinoxalin-2-yl]-amine hydrochloride]
< 10 | – | < 0.1 | c1cc(CNc2cnc3cc(-c4cn[nH]c4)ccc3n2)cs1 [Example 38, [6-(1H-Pyrazol-4-yl)-quinoxalin-2-yl]-thiophen-3-ylmethyl-amine]
